Results on 47 compounds are retold here after ChEMBL document CHEMBL5728971, “Small molecule inhibitors of lactate dehydrogenase and methods of use thereof” (2022).

Molecules are shown by their SMILES. Values joined by “and” are separate entries in the source; they are usually repeats but may differ in a detail not shown here. Equal values may be shown once.

The test can be described thus: Biochemical Assay: Test compounds were placed in a Greiner Bio-One (Monroe, N.C.) 1536-well black solid bottom assay plate. 200 millimolar (mM) Tris HCl, pH 7.4, 100 micromolar (μM) EDTA and 0.01% TWEEN-20™, final concentration, was used as the assay buffer. The LDHA reagent was 2 nanomolar (nM) Human LDHA (Meridian Life Science, Inc., Memphis, Tenn.), final concentration, in assay buffer.
For orientation: IC50 means the concentration needed to halve the response being measured. Read a high IC50 as weaker potency. Consider `Cc1noc(C)c1-c1cc(-c2nn(-c3nc(C(=O)O)cs3)c(CC3CC3)c2Cc2ccc(S(N)(=O)=O)cc2F)ccc1F`, for which the IC50 is less than 100 nM.
In the case of `NS(=O)(=O)c1ccc(Cc2c(C3CC3)nn(-c3nc(C(=O)O)cs3)c2-c2cccc(-c3cccc(F)c3)c2)cc1F` it was “in the range around 29000 nM”; in that of `COc1cccc(-c2cc(-c3nn(-c4nc(C(=O)O)cs4)c(C(F)(F)F)c3Cc3ccc(S(N)(=O)=O)cc3)ccc2F)c1`, less than 100 nM; in that of `O=C(O)c1csc(-n2nc(-c3cc(F)cc(F)c3)cc2O)n1`, more than 57000 nM.
In the case of `NS(=O)(=O)c1ccc(Cc2c(-c3cccc(-c4ccccc4)c3)nn(-c3nc(C(=O)O)cs3)c2C2(C(F)(F)F)CC2)cc1F`, the IC50 entry is “in the range around 29000 nM”.
The figure for `NS(=O)(=O)c1ccc(Cc2c(-c3ccc(F)c(C#CC4(O)CCOC4)c3)nn(-c3nc(C(=O)O)cs3)c2CC2CC2)cc1F` (configuration not stated) is less than 100 nM; for `NS(=O)(=O)c1ccc(Cc2c(-c3ccc(F)c(C#CCC4CCCC4)c3)nn(-c3nc(C(=O)O)cs3)c2CC2CC2)cc1F` it is less than 100 nM.
Compound `O=C(O)c1csc(-n2nc(-c3ccc(F)cc3F)cc2O)n1` returned an IC50 of more than 57000 nM.
In the case of `Cn1cncc1C#Cc1cc(-c2nn(-c3nc(C(=O)O)cs3)c(CC3CC3)c2Cc2ccc(S(N)(=O)=O)c(F)c2)ccc1F` it was less than 100 nM.
The figure for `CC#Cc1cc(-c2nn(-c3nc(C(=O)O)cs3)c(CC3CC3)c2Cc2cccc(S(N)(=O)=O)c2)ccc1F` is less than 100 nM.
For the compound `NS(=O)(=O)c1ccc(Cc2c(-c3cccc(OCc4ccccc4)c3)nn(-c3nc(C(=O)O)cs3)c2CC2CC2)cc1`, the IC50 was less than 100 nM.
The figure for `NS(=O)(=O)c1ccc(Cc2c(-c3ccc(F)c(-c4ccccc4)c3)nn(-c3nc(C(=O)O)cs3)c2CC2CC2)cc1` is less than 100 nM; for `NS(=O)(=O)c1ccc(Cc2c(-c3ccc(F)c(C#CCC4CC4)c3)nn(-c3nc(C(=O)O)cs3)c2CC2CC2)cc1F` it is less than 100 nM.
Take `COc1cccc(-c2cc(-c3nn(-c4nc(C(=O)O)cs4)c(CC4CC4)c3Cc3ccc(S(N)(=O)=O)cc3F)ccc2F)c1`: the IC50 is less than 100 nM.
Compound `O=C(O)c1csc(-n2nc(-c3ccccc3)cc2O)n1` had an IC50 of more than 57000 nM.
As to `NS(=O)(=O)c1ccc(Cc2c(-c3ccc(F)c(C4C5CC6CC(C5)CC4C6)c3)nn(-c3nc(C(=O)O)cs3)c2CC2CC2)cc1F` (configuration not stated), the IC50 result was “in the range around 550 nM”.
In the case of `CC(C)(O)C#Cc1cc(-c2nn(-c3nc(C(=O)O)cs3)c(CC3CC3)c2Cc2ccc(S(N)(=O)=O)c(F)c2)ccc1F` it was less than 100 nM; in that of `NS(=O)(=O)c1ccc(Cc2c(-c3ccc(F)c(C#CCN4CCCC4)c3)nn(-c3nc(C(=O)O)cs3)c2CC2CC2)cc1F`, less than 100 nM.
The entry for `CCOC(=O)c1csc(-n2nc(-c3cccc(-c4ccc(C)cc4)c3)c(Cc3ccc(S(N)(=O)=O)c(F)c3)c2CC2CC2)n1` is “in the range around 29000 nM and > 57000 nM”; for `COc1cccc(-c2cccc(-c3nn(-c4nc(C(=O)O)cs4)c(C4CC4)c3Cc3ccc(S(N)(=O)=O)cc3F)c2)c1` it is less than 100 nM; for `O=C(O)c1csc(-n2nc(-c3cccc(-c4ccccc4F)c3)cc2O)n1` it is more than 57000 nM.
In the case of `C=C(C)C#Cc1cc(-c2nn(-c3nc(C(=O)O)cs3)c(CC3CC3)c2Cc2ccc(S(N)(=O)=O)c(F)c2)ccc1F` it was less than 100 nM; in that of `NS(=O)(=O)c1cccc(Cc2c(-c3ccc(F)c(C#CC4CCCC4)c3)nn(-c3nc(C(=O)O)cs3)c2CC2CC2)c1`, “in the range around 550 nM”; in that of `NS(=O)(=O)c1ccc(NCc2cn(-c3nc(C(=O)O)cs3)nc2-c2ccccc2)cc1`, more than 57000 nM.
Take `CC(F)C#Cc1cc(-c2nn(-c3nc(C(=O)O)cs3)c(CC3CC3)c2Cc2ccc(S(N)(=O)=O)c(F)c2)ccc1F` (configuration not stated): the IC50 was less than 100 nM.
The entry for `NS(=O)(=O)c1ccc(Cc2c(-c3cccc(-c4ccccc4)c3)nn(-c3nc(C(=O)O)cs3)c2C2(C(F)(F)F)CC2)cc1` is “in the range around 29000 nM”; for `CC(C)(C)/C=C/c1cc(-c2nn(-c3nc(C(=O)O)cs3)c(CC3CC3)c2Cc2ccc(S(N)(=O)=O)c(F)c2)ccc1F` it is less than 100 nM.
In the case of `NS(=O)(=O)c1ccc(Cc2c(-c3ccc(F)c(C#CCCO)c3)nn(-c3nc(C(=O)O)cs3)c2CC2CC2)cc1F` it was less than 100 nM; in that of `NC(=O)c1ccc(Cc2c(-c3cccc(-c4ccccc4)c3)nn(-c3nc(C(=O)O)cs3)c2O)cc1`, more than 57000 nM; in that of `Cn1cc(-c2cc(-c3c(Cc4ccc(S(N)(=O)=O)c(F)c4)c(CC4CC4)nn3-c3nc(C(=O)O)cs3)ccc2F)cn1`, more than 57000 nM.
In the case of `NS(=O)(=O)c1ccc(Cc2c(C3CC3)nn(-c3nc(C(=O)O)cs3)c2-c2cccc(-c3cccc(F)c3)c2)c(F)c1` it was “in the range around 29000 nM”; in that of `COc1cccc(-c2cccc(-c3c(Cc4ccc(S(N)(=O)=O)c(F)c4)c(C4CC4)nn3-c3nc(C(=O)O)cs3)c2)c1`, “in the range around 29000 nM”.
Regarding `NS(=O)(=O)c1ccc(Cc2c(-c3ccc(F)c(-c4ccc(F)cc4)c3)nn(-c3nc(C(=O)O)cs3)c2CC2CC2)c(F)c1`, the half-inhibitory concentration (IC50) is less than 100 nM.
In the case of `NS(=O)(=O)c1ccc(Cc2c(-c3ccc(F)c(C4=CCCC4)c3)nn(-c3nc(C(=O)O)cs3)c2CC2CC2)cc1F` it was less than 100 nM; in that of `CC#Cc1cccc(-c2nn(-c3nc(C(=O)O)cs3)c(CC3CC3)c2Cc2ccc(S(N)(=O)=O)c(F)c2)c1`, less than 100 nM; in that of `NS(=O)(=O)c1ccc(Cc2c(C3CC3)nn(-c3nc(C(=O)O)cs3)c2-c2cccc(-c3ccc(F)cc3)c2)c(F)c1`, “in the range around 29000 nM”.
In the case of `Cc1ccc(-c2cc(-c3nn(-c4nc(C(=O)O)cs4)c(CC4CC4)c3Cc3ccc(S(N)(=O)=O)cc3F)ccc2F)cc1` it was less than 100 nM; in that of `NS(=O)(=O)c1ccc(Cc2c(CC(F)(F)F)nn(-c3nc(C(=O)O)cs3)c2-c2cccc(-c3ccccc3)c2)cc1`, “in the range around 29000 nM”.
In the case of `CC(C)c1ccc(-c2cc(-c3nn(-c4nc(C(=O)O)cs4)c(CC4CC4)c3Cc3ccc(S(N)(=O)=O)cc3)ccc2F)cc1` it was less than 100 nM; in that of `NS(=O)(=O)c1ccc(Cc2c(CC3CC3)nn(-c3nc(C(=O)O)cs3)c2-c2ccc(F)c(-c3cccc(F)c3)c2)cc1`, “in the range around 29000 nM”.
For the compound `NS(=O)(=O)c1ccc(Cc2c(-c3cccc(-c4cccc(F)c4)c3)nn(-c3nc(C(=O)O)cs3)c2C(F)(F)F)cc1`, the half-maximal inhibitory concentration (IC50) is less than 100 nM.
In the case of `COc1cccc(-c2cc(-c3c(Cc4ccc(S(N)(=O)=O)cc4F)c(CC4CC4)nn3-c3nc(C(=O)O)cs3)ccc2F)c1` it was “in the range around 29000 nM”; in that of `Cc1ccc(-c2cccc(-c3c(Cc4ccc(S(N)(=O)=O)c(F)c4)c(CC4CC4)nn3-c3nc(C(=O)O)cs3)c2)cc1`, “in the range around 29000 nM”.
The figure for `NS(=O)(=O)c1ccc(Cc2c(-c3cccc(-c4ccccc4)c3)nn(-c3nc(C(=O)O)cs3)c2CC2CC2)cc1` is less than 100 nM; for `CCOC(=O)c1csc(-n2nc(-c3cccc(OC4CCCC4)c3)c(Cc3ccc(S(N)(=O)=O)c(F)c3)c2CC2CC2)n1` it is “in the range around 29000 nM”.
The entry for `NS(=O)(=O)c1ccc(Cc2c(-c3cccc(N4CCC(F)(F)C4)c3)nn(-c3nc(C(=O)O)cs3)c2CC2CC2)cc1F` is “in the range around 29000 nM”; for `CC(C)=Cc1cc(-c2nn(-c3nc(C(=O)O)cs3)c(CC3CC3)c2Cc2ccc([SH+](N)[O-])c(F)c2)ccc1F` (configuration not stated) it is less than 100 nM.
